Source: patent US20170190671A1, “BIS(ARYL)CATECHOL DERIVATIVES AS HERBICIDES” (E I DU PONT DE NEMOURS AND COMPANY, priority 2014, published 2017)

Experiments:
Experiment in all cases: Test C postemergence
Format in all cases: in vivo
[1] = test system: Italian ryegrass (Lolium multiflorum); settings: Lolium multiflorum, post-emergence, 336 h, Postemergence, scale 0 to 100, read-out: Plant response rating, Ryegrass, Italian
How it was run: (§1)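 Visual ratings (0 none to 100 complete control) were made 13 to 15 days after treatment, relative to controls. Test chemicals, formulated in a non-phytotoxic solvent mixture with surfactant, were applied in the greenhouse preemergence to seeded loam-sand soil or postemergence to plants 2 to 18 cm tall.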

[2] = test system: barnyardgrass (Echinochloa crus-galli); settings: Echinochloa crus-galli, post-emergence, Postemergence, scale 0 to 100, read-out: Plant response rating, Barnyardgrass
How it was run: as §1

[3] = test system: blackgrass (Alopecurus myosuroides); settings: Alopecurus myosuroides, post-emergence, 336 h, Postemergence, scale 0 to 100, read-out: Plant response rating, Blackgrass
How it was run: as §1

[4] = test system: chickweed (common chickweed, Stellaria media); settings: Stellaria media, post-emergence, Postemergence, scale 0 to 100, read-out: Plant response rating, Chickweed
How it was run: as §1

[5] = test system: giant foxtail (Setaria faberii); settings: Setaria faberi, post-emergence, 336 h, Postemergence, scale 0 to 100, read-out: Plant response rating, Foxtail, Giant
How it was run: as §1

[6] = test system: johnsongrass (Sorghum halepense); settings: Sorghum halepense, post-emergence, 336 h, Postemergence, scale 0 to 100, read-out: Plant response rating, Johnsongrass
How it was run: as §1

kochia (Kochia scoparia) = settings: Bassia scoparia, post-emergence, Postemergence, scale 0 to 100, read-out: Plant response rating, Kochia
How it was run: as §1

[7] = test system: large (Lg) crabgrass (Digitaria sanguinalis); settings: Digitaria sanguinalis, post-emergence, 336 h, Postemergence, scale 0 to 100, read-out: Plant response rating, Crabgrass, Large
How it was run: as §1

[8] = test system: morningglory (Ipomoea coccinea); settings: Ipomoea, post-emergence, 336 h, Postemergence, scale 0 to 100, read-out: Plant response rating, Morningglory
How it was run: as §1

[9] = test system: oilseed rape (Brassica napus); settings: Brassica napus, post-emergence, Postemergence, scale 0 to 100, read-out: Plant response rating, Oilseed Rape
How it was run: as §1

[10] = test system: pigweed (Amaranthus retroflexus); settings: Amaranthus retroflexus, post-emergence, 336 h, Postemergence, scale 0 to 100, read-out: Plant response rating, Pigweed
How it was run: as §1

[11] = test system: velvetleaf (Abutilon theophrasti); settings: Abutilon theophrasti, post-emergence, Postemergence, scale 0 to 100, read-out: Plant response rating, Velvetleaf
How it was run: as §1

wild oat (Avena fatua) = settings: Avena fatua, post-emergence, Postemergence, scale 0 to 100, read-out: Plant response rating, Oat, Wild
How it was run: as §1

[12] = test system: winter wheat (Triticum aestivum); settings: Triticum aestivum, post-emergence, 336 h, Postemergence, scale 0 to 100, read-out: Plant response rating, Wheat
How it was run: as §1

[13] = test system: yellow nutsedge (Cyperus esculentus); settings: Cyperus, post-emergence, 336 h, Postemergence, scale 0 to 100, read-out: Plant response rating, Nutsedge, Yellow
How it was run: as §1

SMILES: N#Cc1cccc(Oc2ncc(Cl)cn2)c1Oc1ncc(C(F)(F)F)cn1 [Compound 38, 3-[(5-chloro-2-pyrimidinyl)oxy]-2-[[5-(trifluoromethyl)-2-pyrimidinyl]oxy]-benzonitrile]
- pest or weed control at 31 g/ha ([1]; 31 g ai/ha): 5%
- pest or weed control at 62 g/ha ([1]; 62 g ai/ha): 5%
- pest or weed control at 125 g/ha ([1]; 125 g ai/ha): 5%
- pest or weed control at 16 g/ha ([2]; 16 g ai/ha): 10%
- pest or weed control at 31 g/ha ([2]; 31 g ai/ha): 20%
- pest or weed control at 62 g/ha ([2]; 62 g ai/ha): 20%
- pest or weed control at 125 g/ha ([2]; 125 g ai/ha): 35%
- pest or weed control at 16 g/ha ([3]; 16 g ai/ha): 0%
- pest or weed control at 31 g/ha ([3]; 31 g ai/ha): 0%
- pest or weed control at 62 g/ha ([3]; 62 g ai/ha): 10%
- pest or weed control at 125 g/ha ([3]; 125 g ai/ha): 15%
- pest or weed control at 16 g/ha ([4]; 16 g ai/ha): 50%
- pest or weed control at 31 g/ha ([4]; 31 g ai/ha): 50%
- pest or weed control at 62 g/ha ([4]; 62 g ai/ha): 70%
- pest or weed control at 125 g/ha ([4]; 125 g ai/ha): 85%
- pest or weed control at 16 g/ha ([5]; 16 g ai/ha): 5%
- pest or weed control at 31 g/ha ([5]; 31 g ai/ha): 10%
- pest or weed control at 62 g/ha ([5]; 62 g ai/ha): 10%
- pest or weed control at 125 g/ha ([5]; 125 g ai/ha): 25%
- pest or weed control at 16 g/ha ([6]; 16 g ai/ha): 5%
- pest or weed control at 31 g/ha ([6]; 31 g ai/ha): 5%
- pest or weed control at 62 g/ha ([6]; 62 g ai/ha): 5%
- pest or weed control at 125 g/ha ([6]; 125 g ai/ha): 10%
- pest or weed control at 16 g/ha (kochia (Kochia scoparia); 16 g ai/ha): 90%
- pest or weed control at 31 g/ha (kochia (Kochia scoparia); 31 g ai/ha): 90%
- pest or weed control at 62 g/ha (kochia (Kochia scoparia); 62 g ai/ha): 90%
- pest or weed control at 125 g/ha (kochia (Kochia scoparia); 125 g ai/ha): 95%
- pest or weed control at 16 g/ha ([7]; 16 g ai/ha): 5%
- pest or weed control at 31 g/ha ([7]; 31 g ai/ha): 10%
- pest or weed control at 62 g/ha ([7]; 62 g ai/ha): 10%
- pest or weed control at 125 g/ha ([7]; 125 g ai/ha): 30%
- pest or weed control at 31 g/ha ([8]; 31 g ai/ha): 85%
- pest or weed control at 62 g/ha ([8]; 62 g ai/ha): 85%
- pest or weed control at 125 g/ha ([8]; 125 g ai/ha): 90%
- plant injury at 31 g/ha ([9]; 31 g ai/ha): 20%
- plant injury at 62 g/ha ([9]; 62 g ai/ha): 25%
- plant injury at 125 g/ha ([9]; 125 g ai/ha): 5%
- pest or weed control at 31 g/ha ([10]; 31 g ai/ha): 85%
- pest or weed control at 62 g/ha ([10]; 62 g ai/ha): 90%
- pest or weed control at 125 g/ha ([10]; 125 g ai/ha): 90%
- pest or weed control at 31 g/ha ([11]; 31 g ai/ha): 65%
- pest or weed control at 62 g/ha ([11]; 62 g ai/ha): 55%
- pest or weed control at 125 g/ha ([11]; 125 g ai/ha): 60%
- pest or weed control at 31 g/ha (wild oat (Avena fatua); 31 g ai/ha): 5%
- pest or weed control at 62 g/ha (wild oat (Avena fatua); 62 g ai/ha): 10%
- pest or weed control at 125 g/ha (wild oat (Avena fatua); 125 g ai/ha): 10%
- plant injury at 31 g/ha ([12]; 31 g ai/ha): 0%
- plant injury at 62 g/ha ([12]; 62 g ai/ha): 0%
- plant injury at 125 g/ha ([12]; 125 g ai/ha): 0%
- pest or weed control at 31 g/ha ([13]; 31 g ai/ha): 0%
- pest or weed control at 62 g/ha ([13]; 62 g ai/ha): 5%
- pest or weed control at 125 g/ha ([13]; 125 g ai/ha): 10%
